{"source": "patent US20230277538A1", "about": "“THERAPEUTICS FOR THE TREATMENT OF FSHD” (UCL BUSINESS LTD, priority 2020, published 2023)", "key": {"iC2C12-DUX4 myoblasts": {"tested_on": "iC2C12-DUX4 myoblasts", "experiment": "Cell viability (ATP assay, CellTiter-Glo) of dox-induced iC2C12-DUX4 myoblasts with death inhibitors", "assay_type": "cell-based, mouse", "conditions": "for increase in the number of viable cells: inhibitor present; for optimal dose from dose response: with or without doxycycline 200 ng/ml, 24 hours after dox induction", "procedure": "(A) Cell viability of iC2C12-DUX4 myoblasts at 48 h of induction without or with dox (200 ng/ml) and treatment with various concentrations of the pan-caspase inhibitor Z-VAD (μM). […] Ctrl: DMSO alone.\nFIG. 10: Role of necroptosis in the DUX4 mediated cell death. Several death inhibitors were added at different concentrations alone to iC2C12 myoblasts in presence or not of Doxycycline 200 ng/ml.\nFor myoblast experiments, iC2C12-Dux4 were seeded into white 96-well plates (3000 cells per well) in growth medium. After 24 h, DUX4 expression was induced by adding doxycycline (Sigma-Aldrich) at a final concentration of 50 to 1000 ng/mL. For myotubes experiments, iC2C12-Dux4 were seeded into white 96-well plates (1500 cells per well) in growth medium. After 48 h, cells were differentiated with DMEM, 2% horse serum and 10 μg/mL insulin. […] Inhibition of apoptosis and/or necroptosis was simultaneously realized to DUX4 induction for 24 h using 20 μM of pan-caspase inhibitor Z-VAD.fmk (Merk Chemicals), 30 μM Necrostatin-1, 3 μM GSK872, 0.2 Cyclosporin A (Cambridge Bioscience). Cell survival was determined by CellTiter-Glo luminescent cell viability assay (Promega), membrane permeability by CytoTox-Glo cytotoxicity assay (Promega) and caspase activation by Caspase-Glo 3/7 Assay (Promega) according to the manufacturer's instructions. Luminescence was read by a microplate reader Tecan.\nThe iC2C12-DUX4 viability was assessed for 2 different doses of dox and the results are expressed as the percentage of cells alive in the presence of the different compounds compared to the condition without them. Z-VAD was always added to eliminate any bias linked to caspases 3/7 activation/synergic effect."}, "iC2C12-DUX4 myotubes": {"tested_on": "iC2C12-DUX4 myotubes", "experiment": "cells", "assay_type": "cell-based, mouse", "procedure": "FIG. 4: Ripk3 inhibition decreases DUX4-mediated cell death in iC2C12-DUX4 myotubes. (A) iC2C12-DUX4 viability in presence of dox 1000 ng/ml and treated with different doses of Z-VAD, Necrostatin-1 or GSK'872. (B) Cell viability in presence of dox 1000 ng/ml with the different compounds alone or in combination. Z: Z-vad (20 μM); N: necrostatin-1 (30 μM), N+: necrostatin-1 (90 μM), G: GSK'872 (2 μM); G+: GSK'872 (4 μM).\n(§1) Inducible iC2C12-Dux4 (Bosnakovski, 2008) were cultured in DMEM high glucose with GlutaMAX and no Sodium Pyruvate (Gibco), 20% fetal bovine serum, and 800 μg/mL G418 (Gibco). For myoblast experiments, iC2C12-Dux4 were seeded into white 96-well plates (3000 cells per well) in growth medium. After 24 h, DUX4 expression was induced by adding doxycycline (Sigma-Aldrich) at a final concentration of 50 to 1000 ng/mL. For myotubes experiments, iC2C12-Dux4 were seeded into white 96-well plates (1500 cells per well) in growth medium. After 48 h, cells were differentiated with DMEM, 2% horse serum and 10 μg/mL insulin. DUX4 expression was induced after 4 days of differentiation to not disturb myotube formation (Bosnakovski, 2008). Inhibition of apoptosis and/or necroptosis was simultaneously realized to DUX4 induction for 24 h using 20 μM of pan-caspase inhibitor Z-VAD.fmk (Merk Chemicals), 30 μM Necrostatin-1, 3 μM GSK872, 0.2 Cyclosporin A (Cambridge Bioscience). Cell survival was determined by CellTiter-Glo luminescent cell viability assay (Promega), membrane permeability by CytoTox-Glo cytotoxicity assay (Promega) and caspase activation by Caspase-Glo 3/7 Assay (Promega) according to the manufacturer's instructions. Luminescence was read by a microplate reader Tecan.\nThe effects of the different inhibitors on iC2C12-DUX4 myotubes were investigated. Again, the results are expressed as the percentage of live cells in the presence of the different compounds compared to the control condition without. No effect of Z-VAD were observed arguing against a major role of caspases in DUX4-mediated toxicity (FIG. 4A). When the cells were cultivated with necrostatin-1 in the presence of dox (1000 ng/ml), necrostatin-1 concentrations […] 60 μM conferred a protection against cell death (up to 60%±6 of viable cells in presence of 60 μM necrostatin-1 compared to 39%±1 without, FIG. 4A), necrostatin-1 concentrations of 150 or 300 μM leading to up to 85%±2 viable cells (FIG. 4A). […] The different compounds were next added separately or together to iC2C12-DUX4 myotubes that were incubated with dox (1000 ng/ml). […] Indeed, at low (2 μM) or high (4 μM) concentration, GSK'872 increased cell viability by 2.1 fold (FIG. 4D). […] Ripk3 but also to a lesser extent Ripk1, participated in DUX4-mediated cell toxicity."}, "[1]": {"tested_on": "Cre-inducible FLExDUX4 mice", "experiment": "In vivo GSK'872 treatment of tamoxifen-induced Cre-inducible FLExDUX4 mice", "design": "species or system mouse", "conditions": "GSK'872 2 mg/kg for 5 days IP; tamoxifen 10 mg/kg for 2 days IP; mice killed at 7 weeks", "procedure": "Mice were killed at the age of 7 weeks. (A) Total body weight was measured at day 0 and 7. Y-axis represents the weight after tamoxifen at D7 relative to the weight before tamoxifen injection at DO. (BC) Weights of the tibialis anterior (TA) (B) and quadriceps (C) were measured at D7. (DE) Expression levels of 2 genes (Tm7sf4 (D) and DuxBl (E)) downstream of DUX4 were measured in the quadriceps. Y-axis represents arbitrary units relative to Psma2. • * P<0.05, **P<0.01, ***P<0.001, one-way ANOVA followed by a Tukey's multiple comparison test.\nThree-week-old animals were weighted 3 times a week, after weaning. The tamoxifen (MP Biomedicals) injections were realized according to Jones et al (Jones, 2018). Six-week-old mice were injected (IP) with Tamoxifen (TMX) on two consecutive days for a final concentration of 10 mg/kg. Following TMX injection, animals were daily weighed, and sacrificed after a week. Muscles were harvested and frozen in liquid nitrogen or liquid-nitrogen-cooled isopentane for further analysis."}, "Caspase 3/7": {"tested_on": "Caspase 3/7", "experiment": "Caspase-Glo 3/7 Assay in iC2C12-DUX4 cells", "assay_type": "cell-based, mouse", "conditions": "Z-Vad 30 μM or 50 μM, different concentrations of doxycycline", "procedure": "FIG. 9: Apoptosis is not involved in iC2C12-DUX4 death. (A) Cell viability on iC2C12-DUX4 myoblasts in the presence of different concentrations of DMSO induced a non-specific increase of cell survival. […] Caspase 3/7 activity was measured using the Caspase-Glo 3/7 Assay (Promega) according to the manufacturer's instructions.\nas §1, with “Inhibition of apoptosis and/or necroptosis was simultaneously realized to DUX4 induction for 24 h using 20 μM of pan-caspase inhibitor Z-VAD.fmk (Merk Chemicals), 30 μM Necrostatin-1, 3 μM GSK872, 0.2 Cyclosporin A (Cambridge Bioscience).” left out"}, "[2]": {"tested_on": "necroptotic genes (Ripk1, Ripk3 and Mlk1) and DUX4-network genes (Tm7sf4, mDuxb1 and Wfdc3)", "experiment": "mRNA expression of necroptotic and DUX4-network genes in treated Actal Cre-FLEx DUX4 mice", "assay_type": "in vivo, mouse", "experimental": "Dabrafenib (30 mg/kg) was given by oral (p.o.) gavage to 4-5 week old Actal Cre-FLEx DUX4 animals 5 times/week for 4 weeks. Tamoxifen was intraperitoneally weakly injected (2 mg/kg). […] Expression of necroptotic genes (Ripk1, Ripk3 and Mlk1) and DUX4-network genes (Tm7sf4, mDuxb1 and Wfdc3) were measured.\nFor muscles, cryopreserved tissues were transferred in tube containing 1.4 mm ceramic beads (FastPrep, MP biomedicals, UK) plus 1 mL of Trizol (Thermo Fisher Scientific, Paisley, UK) and shaken at 10000 rpm for 40 s. Total RNAs from cells or tissue were extracted using Trizol (Thermo Fisher) according the manufacturer's protocol. The quantity of RNA was determined using a nanodrop ND-1000 spectrophotometer (Thermo Scientific, Wilmington, Del., USA). Reverse transcription was performed on 1 μg of total RNA in a 10 μL final volume (Roche Transcriptor First Strand cDNA Synthesis kit). Quantitative PCR (qPCR) was designed according to the MIQE standards. qPCRs were performed on a LightCycler 480 Real-Time PCR System (Roche) in a final volume of 9 with 0.2 μL of RT product, 0.4 μM each of forward and reverse primers (see Tables 2 and 3), and 4.5 μL of SYBRGreen Mastermix (Roche).\nDabrafenib (30 mg/kg) was administered by oral (p.o.) gavage to 4-5 week old animals 5 times/week for 4 weeks. Tamoxifen was intraperitoneally injected weakly (2 mg/kg)."}, "[3]": {"conditions": "Mus musculus, Myotube, read-out: viable cells"}}, "note": "Residues, ends and D or L forms follow the SMILES beside them. *: point of attachment. Cbz = O=C(OCc1ccccc1)*; CH2F = FC*", "data": [{"smiles": "CC(C)S(=O)(=O)c1ccc2nccc(Nc3ccc4scnc4c3)c2c1", "note": "[GSK'872, Benzothiazol-5-yl-[6-(propane-2-sulfonyl)-quinolin-4-yl]-amine]", "values": [{"measurement": "increase in the number of viable cells", "setting": "iC2C12-DUX4 myoblasts; iC2C12 myoblasts", "value": 10, "unit": "%"}, {"measurement": "optimal dose from dose response", "setting": "iC2C12-DUX4 myoblasts; myoblasts", "value": 3, "unit": "µM"}, {"measurement": "viability at 3 µM", "setting": "iC2C12-DUX4 myotubes; [3]", "value": 67, "unit": "%"}, {"measurement": "viability at 6 µM", "setting": "iC2C12-DUX4 myotubes; [3]", "value": 77, "unit": "%"}, {"measurement": "increase of the number of viable cells", "setting": "iC2C12-DUX4 myotubes; iC2C12-DUX4 myotubes, GSK'872 in combination with Z-Vad", "value": 2, "unit": "fold"}, {"measurement": "increase of cell viability", "setting": "iC2C12-DUX4 myotubes; myotubes, dox 1000 ng/ml, GSK'872 low (2 μM) or high (4 μM) concentration", "value": 2.1, "unit": "fold"}, {"measurement": "DUX4-mediated cell death in vivo", "setting": "[1]", "value": "decreased DUX4-mediated cell death in vivo"}]}, {"smiles": "COC(=O)C[C@H](NC(=O)[C@H](C)NC(=O)[C@@H](NC(=O)OCc1ccccc1)C(C)C)C(=O)CF", "note": "[Z-VAD] (Cbz-Val-Ala-Asp(OMe)-CH2F)", "values": [{"measurement": "percentage of viable cells", "setting": "iC2C12-DUX4 myoblasts; iC2C12 myoblasts, addition of Z-Vad", "value": "did not modify the percentage of viable cells"}, {"measurement": "cell survival with and without Z-VAD", "setting": "iC2C12-DUX4 myoblasts; myoblasts, 200 ng/ml dox, different doses of Z-VAD", "value": "No change in cell survival"}, {"measurement": "cell survival", "setting": "iC2C12-DUX4 myotubes; iC2C12-DUX4 myotubes, Z-vad added in vitro", "value": "did not increase cell survival"}, {"measurement": "increase of cell survival", "setting": "iC2C12-DUX4 myotubes; myotubes, dox 1000 ng/ml, Z-VAD alone (20 μM)", "value": "10%±10"}, {"measurement": "effect on live cells", "setting": "iC2C12-DUX4 myotubes; myotubes, dox 1000 ng/ml, different doses of Z-VAD", "value": "No effect"}, {"measurement": "caspase 3/7 activity after DUX4 expression", "setting": "Caspase 3/7", "value": "correctly inhibited"}]}, {"smiles": "CC(C)(C)c1nc(-c2cccc(NS(=O)(=O)c3c(F)cccc3F)c2F)c(-c2ccnc(N)n2)s1", "note": "[dabrafenib, N-{3-[5-(2-aminopyrimidin-4-yl)-2-tert-butylthiazol-4-yl]-2-fluorophenyl}-2,6-difluorobenzenesulfonamide]", "values": [{"measurement": "mean expression of Ripk1, Ripk3, Mlk1, Tm7sf4, mDuxb1 and Wfdc3 relative to untreated control animals", "setting": "[2]; dabrafenib 30 mg/kg p.o. 5 times/week for 4 weeks, 4-5 week old animals, tamoxifen 2 mg/kg", "value": "decreased mean expression of almost all of these genes"}]}, {"smiles": "Nc1cccc2c(=O)[nH][nH]c(=O)c12.[Na]", "note": "[galavit, 3-aminophthalhydrazide monosodium salt]", "values": [{"measurement": "mean expression of Ripk1, Ripk3, Mlk1, Tm7sf4, mDuxb1 and Wfdc3 relative to untreated control animals", "setting": "[2]; galavit 4.5 mg/kg IP daily for 3 days, 7-8 week old males, tamoxifen 10 mg/kg day 0 and 1", "value": "decreased mean expression of almost all of these genes"}]}, {"smiles": "CN1C(=O)C(Cc2c[nH]c3ccccc23)NC1=S", "note": "(stereo not shown) [necrostatin-1, 5-(1H-indol-3-ylmethyl)-3-methyl-2-sulfanylideneimidazolidin-4-one]", "values": [{"measurement": "increase in the number of viable cells", "setting": "iC2C12-DUX4 myoblasts; iC2C12 myoblasts", "value": 20, "unit": "%"}, {"measurement": "increase of cells survival", "setting": "iC2C12-DUX4 myoblasts; myoblasts, 200 ng/ml dox, necrostatin-1 present, Z-VAD always added", "value": "34%±20"}, {"measurement": "optimal dose from dose response", "setting": "iC2C12-DUX4 myoblasts; myoblasts", "value": 30, "unit": "µM"}, {"measurement": "viability at 60 µM", "setting": "iC2C12-DUX4 myotubes; [3]", "value": 60, "unit": "%"}]}]}
